Consider 4 compounds from patent publication US20140024548A1, “DRUG SELECTION FOR MALIGNANT CANCER THERAPY USING ANTIBODY-BASED ARRAYS” (NESTEC S.A., priority 2010, published 2014).

The conditions of data set [1]: in vivo; cited from earlier work.
Another data set has as its system CYP450. The note with it: cited from earlier work.
The conditions of data set [2]: early Phase I evaluation; cited from earlier work.
A further data set concerns human xenograft models. The note with it: dosed orally; cited from earlier work.
In the next data set the test system is HER2. Briefly: CEER detection of activated HER2 in HCC827 cells treated with HGF. It is filed as cell-based. The note with it: HGF stimulation, judged by increased EC50. How it is done:
(§1) In one particular embodiment, cells from a NSCLC cell line (e.g., HCC827 cells or other gefitinib sensitive lung adenocarcinoma cells with EGFR-activating mutations; American Type Culture Collection, Manassas, Va.) were treated with different concentrations of ligand or signaling molecule (e.g., the ligand for the cMET receptor, HGF). The levels of expression and activation of proteins associated with cancer were measured in the treated cells with high sensitivity using CEER arrays. By varying the amount of ligand exposed to the cancer cells, the expression profiles of the analyzed proteins were correlated to the amount of ligand used to stimulate the cells. Dose response curves were used to calculate EC50 values which can be used to interpret the inhibition and activation states of the analyzed proteins.
(§2) FIG. 10 illustrates the difference in protein expression in HCC827 cells following HGF stimulation. […] FIG. 10E illustrates that HGF and cMET binding interferes with HER3 activation, and HER1 and HER2 to a lesser extent (see also, FIGS. 10C and 10D).

A further data set deals with T1, cMET (Homo sapiens, UniProt P08581).
T1 construct: host or cells: HCC827
T1 sequence (P08581 25-1390): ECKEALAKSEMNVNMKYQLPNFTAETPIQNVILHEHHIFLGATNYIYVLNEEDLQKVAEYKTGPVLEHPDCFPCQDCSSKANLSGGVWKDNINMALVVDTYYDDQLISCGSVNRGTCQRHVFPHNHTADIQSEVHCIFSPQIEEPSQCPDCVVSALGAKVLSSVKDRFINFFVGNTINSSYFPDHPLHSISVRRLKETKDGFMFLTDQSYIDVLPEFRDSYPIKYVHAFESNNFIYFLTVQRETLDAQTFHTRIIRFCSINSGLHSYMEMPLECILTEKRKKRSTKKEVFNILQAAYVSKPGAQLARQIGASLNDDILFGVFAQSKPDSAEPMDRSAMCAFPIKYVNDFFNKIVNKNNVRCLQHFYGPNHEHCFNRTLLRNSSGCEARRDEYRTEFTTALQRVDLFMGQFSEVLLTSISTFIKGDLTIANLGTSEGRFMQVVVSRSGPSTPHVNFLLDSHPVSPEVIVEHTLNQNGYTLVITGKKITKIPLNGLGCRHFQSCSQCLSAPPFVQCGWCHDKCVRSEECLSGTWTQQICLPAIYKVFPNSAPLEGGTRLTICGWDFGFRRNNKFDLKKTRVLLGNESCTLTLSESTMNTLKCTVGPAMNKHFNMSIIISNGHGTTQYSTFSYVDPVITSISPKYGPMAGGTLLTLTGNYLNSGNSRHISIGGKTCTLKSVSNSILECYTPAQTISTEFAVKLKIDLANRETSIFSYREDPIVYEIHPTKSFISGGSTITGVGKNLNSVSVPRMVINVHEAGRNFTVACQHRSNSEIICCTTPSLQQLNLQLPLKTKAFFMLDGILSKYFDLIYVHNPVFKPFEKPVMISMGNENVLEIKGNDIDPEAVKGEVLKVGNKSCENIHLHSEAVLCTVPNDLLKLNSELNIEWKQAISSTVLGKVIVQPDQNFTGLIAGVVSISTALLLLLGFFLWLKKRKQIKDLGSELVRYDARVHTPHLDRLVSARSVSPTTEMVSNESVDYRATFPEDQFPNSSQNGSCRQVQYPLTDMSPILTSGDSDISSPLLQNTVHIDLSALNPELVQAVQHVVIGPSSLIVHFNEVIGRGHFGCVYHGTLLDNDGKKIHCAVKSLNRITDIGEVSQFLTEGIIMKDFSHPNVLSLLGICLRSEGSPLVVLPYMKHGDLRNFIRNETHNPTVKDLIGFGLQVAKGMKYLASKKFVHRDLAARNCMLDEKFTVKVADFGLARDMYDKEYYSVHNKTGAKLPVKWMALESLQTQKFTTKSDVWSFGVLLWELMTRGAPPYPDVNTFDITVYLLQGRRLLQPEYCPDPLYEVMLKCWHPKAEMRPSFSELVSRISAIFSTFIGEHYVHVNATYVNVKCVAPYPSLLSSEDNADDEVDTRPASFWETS
Briefly: CEER detection of activated cMET in HCC827 cells treated with HGF. It is filed as cell-based. The note with it: HGF stimulation, FIG. 10B. How it is done:
as §1, §2

Another data set relates to HER3. Briefly: CEER detection of activated HER3 in HCC827 cells treated with HGF. It is filed as cell-based. The settings on record: HGF stimulation, judged by increased EC50. How it is done: as §1, §2
For the next data set, the system named is HER1. Kind of data set: CEER detection of activated HER1 in HCC827 cells treated with HGF. Format: cell-based. The note with it: HGF stimulation, judged by increased EC50. How it is done:
as §1, §2

In the case of `COc1cc2c(Oc3ccc(NC(=O)C4(C(=O)Nc5ccc(F)cc5)CC4)cc3F)ccnc2cc1OCCCN1CCOCC1` [GSK 1363089/XL880], in data set [1], the oral bioavailability entry is on record as “good oral bioavailability”. Besides, the “CYP450 substrate / inhibitor / inducer status” value with CYP450 is “substrate, but not an inhibitor or inducer”.
`CN(C[C@@H]1COCCO1)S(=O)(=O)Nc1ccc2ccc3ncc(-c4cnn(C)c4)cc3c(=O)c2c1` [MK-2461]: the tolerability entry in data set [2] is given as “well tolerated”.
With `Cn1cc(-c2ccc3nnc(Sc4ccc5ncccc5c4)n3n2)cn1` [SGX523], in the data set with human xenograft models, the antitumor activity result is recorded as “potent antitumor activity” and the toxicity entry is “no overt toxicity”.
As for “HGF: hepatocyte growth factor, the ligand for the cMET receptor”, the HER2 activation result in the data set with HER2 is recorded as “decreased”. In addition, in the data set with cMET, the cMET activation result is reported as “activated cMET effectively”. In addition, in the data set on HER3, the HER3 activation result is reported as “decreased”. Further, the HER1 activation entry with HER1 is “decreased”.
